# Where two headings read alike, the source gives them in different places.
# Key:
# [1] = test system: panel of 419 human kinases; assay: KINOMEscan competition binding panel; settings: 1 μM; 419 kinases tested
# Protocol: Activity of Compound (10b) (1 μM) was assessed against a panel of 419 human kinases (including a set of disease-relevant mutant variants). Assays were conducted using the KINOMEscan™ platform from DiscoverX which measures compound interaction with kinases using active site-directed competition binding assays. Displacement of ligand binding to the kinase by <35% of the control value is considered significant. Of the 419 kinases tested, only 4 kinases reached this level of displacement: Protein kinase C eta (PRKCH), 34% control; Large tumor suppressor kinase 1 (LATS1), 32% control; General control nonderepressible 2 kinase (GCN2), 21% control; and Hematopoietic Progenitor Kinase 1 (HPK1), 4.4% control.
# [2] = test system: KYSE-520 xenograft tumors; assay: Pharmacodynamics in KYSE-520 xenograft tumors (DUSP6 / MPAS-plus mRNA); format: in vivo, NSG mice; settings: for IC50: Mus musculus, KYSE-520, plasma concentration
# Protocol: KYSE-520 (EGFRamp) cells were subcutaneously implanted in NSG mice and allowed to grow to an average tumor volume of 340 mm^3 as monitored by caliper measurements. At this point, animals were randomized and treated with vehicle, Compound (10b) 25 mg/kg or Compound (10b) 100 mg/kg PO. Plasma and tumor samples were harvested 4, 16 and 24 hours after a single dose. Compound (10b) plasma concentration and tumor pERK levels were determined. Data represent mean±SEM. N=4 mice per group.
# In addition to DUSP6 mRNA levels, other MAPK pathway genes were examined through sequencing analysis. The MPAS (MAPK pathway activity score) signature is a signature of 10 genes that reflects MAPK pathway activity. This gene signature has been used in the clinic to evaluate the pharmacodynamic effect of the ERK inhibitor GDC-0994 in tumors. Based on the MPAS signature, a 13-gene signature (“MPAS-plus”) was developed, which includes the 10 MPAS genes and three additional MAPK-targeted genes (ETV1, EGR1 and FOSL1) that are modulated by SHP2 inhibitors across multiple cell line models (data not shown).
# [3] = test system: panel of 14 full-length human phosphatases; assay: Eurofins Panlabs spectrofluorimetric phosphatase panel; format: biochemical; settings: 10 μM
# Protocol: The activity of Compound (10b) was also assessed against a panel of 14 full-length human phosphatases using spectrofluorimetric biochemical assays. These assays were conducted using the Eurofins Panlabs platform.
# [4] = Single-dose pharmacokinetics, C57BL/6 mouse; format: in vivo, mouse (C57BL/6; settings: female, plasma, oral 10 mg/kg, free base
# Protocol: The pharmacokinetic (PK) parameters of Compound (10b) (freebase) were determined following single intravenous (IV) and oral (PO) administration in female CD-1 mouse, female C57BL/6 mouse (PO only), male Sprague Dawley rat, male Beagle dog, and male Cynomolgus monkey. Additional evaluation of the PK properties of Compound (10b) was obtained following single dose PO administration in female CD-1 mouse, male Sprague Dawley rat and male Beagle dog over a dose range spanning 10 to 300 mg/kg (mouse and rat) and 1 to 100 mg/kg (dog). The intravenous dose solutions were prepared in 20% DMSO-60% PEG400-20% water and the oral dose solutions as suspensions in 0.5% methylcellulose in water, unless otherwise noted. Plasma concentration profiles were generated from serial sampling in individual animals up to 24 hours post dose, except for the studies in mice where composite sampling methods were used (i.e. 3 sampling times per mouse; 9 mice per group). […] Exposures increased with increasing dose level across species, in a dose-proportional manner in mouse and dog, and in a greater than dose-proportional manner in rat (80× increase in AUC with a 30× increase in dosage).
# [5] = Single oral dose exposure in NOD/SCID mice; format: in vivo; settings: male, mouse; for Kp at 24 h: brain; for AUC(0-inf) / Cmax: plasma
# Protocol: Male NOD/SCID mice (n=3 per group) were administered a single dose of Compound (10b) at 1, 3, 10, 30, and 100 mg/kg by oral gavage. Plasma was collected at 0.25, 1, 2, 4, 8, and 24 hours after each dose, and brains were collected at 24 hours after each dose. Compound (10b) concentrations were determined with LC-MS/MS.
# [6] = test system: HCC827 cell line-derived xenograft (CDX) model; assay: Monotherapy anti-tumor activity, HCC827 CDX model; format: in vivo; settings: for tumor growth inhibition (TGI): day 1 to day 28
# Protocol: An in vivo efficacy study was conducted to evaluate the monotherapy anti-tumor activity of Compound (10b) in female BALB/c nude mice bearing the non-small cell lung cancer (NSCLC) HCC827 cell line-derived xenograft (CDX) model, which harbors an EGFR exon 19 deletion (EGFR^ex19del) and EGFR amplification (EGFRamp). Mice (n=10 per group) were dosed daily orally with the indicated levels of Compound (10b) from day 1 to day 28, and a dose dependent reduction in tumor volume was observed. […] All groups dosed QD, PO Two-way mixed-effects ANOVA: *p<0.0001 vs vehicle.
# In vivo efficacy studies were conducted to evaluate the monotherapy anti-tumor activity of Compound (10b) across a panel of cell line-derived xenograft (CDX) models. […] Significant anti-tumor efficacy was also observed in two CDX models with acquired resistance to EGFR inhibitors.
compound,measurement,setting,value
"Cc1c(N2CCC3(CC2)CO[C@@H](C)[C@H]3N)nc(C)n(-c2cccc(Cl)c2Cl)c1=O (atropisomer, axis not shown; (Ra)) [Compound (10b), 6-((3S,4S)-4-amino-3-methyl-2-oxa-8-azaspiro[4.5]decan-8-yl)-3-(Ra)-(2,3-dichlorophenyl)-2,5-dimethylpyrimidin-4(3H)-one]",number of kinases with displacement <35% of control,[1],4
same,suppression of DUSP6 mRNA levels in tumors,"[2]; 25 mg/kg PO, 4-hour after a single dose",> 90%
same,suppression of DUSP6 mRNA levels in tumors,"[2]; 25 mg/kg PO, 16-hour after a single dose",< 50%
same,suppression of DUSP6 mRNA levels in tumors,"[2]; 25 mg/kg or 100 mg/kg PO, 24-hour after a single dose",neither treatment significantly suppressed
same,suppression of DUSP6 mRNA levels in tumors,"[2]; 100 mg/kg PO, 4-hour after a single dose",> 90%
same,suppression of DUSP6 mRNA levels in tumors,"[2]; 100 mg/kg PO, 16-hour after a single dose",> 50%
same,IC50,"[2]; PK/PD relationship, read-out: in vivo IC50",1500 nM
same,IC50,[2]; read-out: KYSE-520 xenograft DUSP6 IC50,0.656 µg/mL
same,Cmax,"[2]; prediction used as reference line for human plasma levels, read-out: predicted efficacious Cmax",5.3 µM
same,suppression of the MPAS-plus signature in the tumor,"[2]; single oral dose or five doses, 25 mg/kg or 100 mg/kg",dose- and time-dependent suppression
same,inhibition of phosphatases,[3],No significant inhibition
same,Cmax,[4],5.4 µM
same,Tmax,[4],1 h
same,AUC(0-t),[4]; read-out: AUC0→24,39 µM·h
same,Kp at 24 h,"[5]; oral, mean over doses 1-100 mg/kg, read-out: mean total brain/plasma level at 24 hours",0.33
same,Kp at 24 h,"[5]; single oral dose 1 mg/kg, read-out: total brain/plasma levels at 24 hours",0.35
same,Kp at 24 h,"[5]; single oral dose 3 mg/kg, read-out: total brain/plasma levels at 24 hours",0.31
same,Kp at 24 h,"[5]; single oral dose 10 mg/kg, read-out: total brain/plasma levels at 24 hours",0.3
same,Kp at 24 h,"[5]; single oral dose 30 mg/kg, read-out: total brain/plasma levels at 24 hours",0.31
same,Kp at 24 h,"[5]; single oral dose 100 mg/kg, read-out: total brain/plasma levels at 24 hours",0.37
same,AUC(0-inf),[5]; single oral dose 1 mg/kg,1030 ng·h/mL
same,Cmax,[5]; single oral dose 1 mg/kg,160 ng/mL
same,AUC(0-inf),[5]; single oral dose 3 mg/kg,3530 ng·h/mL
same,Cmax,[5]; single oral dose 3 mg/kg,507 ng/mL
same,AUC(0-inf),[5]; single oral dose 10 mg/kg,13000 ng·h/mL
same,Cmax,[5]; single oral dose 10 mg/kg,2030 ng/mL
same,AUC(0-inf),[5]; single oral dose 30 mg/kg,30600 ng·h/mL
same,Cmax,[5]; single oral dose 30 mg/kg,4870 ng/mL
same,AUC(0-inf),[5]; single oral dose 100 mg/kg,123000 ng·h/mL
same,Cmax,[5]; single oral dose 100 mg/kg,13900 ng/mL
same,tumor growth inhibition (TGI),[6]; 3 mg/kg QD PO,41%
same,tumor growth inhibition (TGI),[6]; 10 mg/kg QD PO,84%
same,tumor growth inhibition (TGI),[6]; 30 mg/kg QD PO,98%
same,mean tumor regression,[6]; 100 mg/kg QD PO,60%
same,impact of treatment on body weight,[6]; 3-100 mg/kg QD PO,no impact
same,tolerability,[6]; 3-100 mg/kg QD PO,well tolerated
same,ED90,[6]; QD PO,10 mg/kg

# Reference: US20250213563A1, “SUBSTITUTED PYRIMIDIN-4(3H)-ONES FOR USE IN TREATING CANCER” (NAVIRE PHARMA, INC., priority 2021, published 2025)
